Data: ChEMBL document CHEMBL1201862, “PubChem BioAssay data set” (2004)
Active and inactive are the calls of the source.

Assays:
[1] = biological target: T1, Ubiquitin-conjugating enzyme E2 N (Homo sapiens, UniProt P61088); type: functional;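 note: Dose-response confirmation in a TR-FRET assay detecting UBC13-driven polyubiquitin chain formation, inhibition measured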
T1 sequence (P61088 whole entry): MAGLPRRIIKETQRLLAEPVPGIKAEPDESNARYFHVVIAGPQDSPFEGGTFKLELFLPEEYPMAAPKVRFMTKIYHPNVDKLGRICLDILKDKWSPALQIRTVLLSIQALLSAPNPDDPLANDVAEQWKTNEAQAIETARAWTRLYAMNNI

[2] = biological target: T2, DNA repair and recombination protein RAD54-like (Homo sapiens, UniProt Q92698); assay: RAD54 Holliday junction migration blockers – biochemical, fluorescence, cherry-picked samples, dose series, confirmation (AID 651657); type: functional
T2 sequence (Q92698 whole entry): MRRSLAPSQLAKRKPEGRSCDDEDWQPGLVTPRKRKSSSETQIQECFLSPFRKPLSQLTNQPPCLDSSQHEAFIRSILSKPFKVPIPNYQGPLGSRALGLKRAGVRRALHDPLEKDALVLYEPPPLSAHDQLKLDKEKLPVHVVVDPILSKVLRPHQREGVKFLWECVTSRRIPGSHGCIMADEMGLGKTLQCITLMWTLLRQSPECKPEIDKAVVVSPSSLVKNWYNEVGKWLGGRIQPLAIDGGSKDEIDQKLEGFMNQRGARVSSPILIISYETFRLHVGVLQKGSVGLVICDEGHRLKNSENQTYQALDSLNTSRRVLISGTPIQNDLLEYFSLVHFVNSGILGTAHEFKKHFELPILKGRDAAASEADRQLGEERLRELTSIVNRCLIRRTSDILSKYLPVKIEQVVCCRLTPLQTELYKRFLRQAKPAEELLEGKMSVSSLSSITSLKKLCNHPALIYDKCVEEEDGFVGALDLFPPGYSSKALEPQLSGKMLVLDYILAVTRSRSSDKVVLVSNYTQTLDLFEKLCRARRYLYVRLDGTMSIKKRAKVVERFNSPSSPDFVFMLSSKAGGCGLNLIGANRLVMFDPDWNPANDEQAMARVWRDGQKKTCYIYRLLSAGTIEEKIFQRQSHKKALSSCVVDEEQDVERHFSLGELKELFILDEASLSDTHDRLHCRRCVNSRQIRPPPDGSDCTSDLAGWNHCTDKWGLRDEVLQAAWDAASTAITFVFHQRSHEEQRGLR

Caspase-3 = biological target: T3, Caspase-3 (Homo sapiens, UniProt P42574); type: functional;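 note: Dose-response selectivity test against caspase-3 for candidate inhibitors of sentrin-specific proteases (SENPs)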
T3 sequence (P42574 whole entry): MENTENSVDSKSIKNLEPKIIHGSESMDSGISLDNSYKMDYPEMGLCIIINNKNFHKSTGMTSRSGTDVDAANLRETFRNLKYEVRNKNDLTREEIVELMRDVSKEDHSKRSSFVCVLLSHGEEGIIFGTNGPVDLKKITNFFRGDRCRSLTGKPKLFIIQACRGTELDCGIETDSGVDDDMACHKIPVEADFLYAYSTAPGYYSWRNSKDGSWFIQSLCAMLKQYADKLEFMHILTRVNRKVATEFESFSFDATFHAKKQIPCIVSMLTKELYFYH

[3] = biological target: T4, Sentrin-specific protease 7 (Homo sapiens, UniProt Q9BQF6); type: functional;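 note: Luminescence-based dose-response confirmation of ultra-high-throughput screening hits, measuring inhibition of SENP7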
T4 sequence (Q9BQF6 whole entry): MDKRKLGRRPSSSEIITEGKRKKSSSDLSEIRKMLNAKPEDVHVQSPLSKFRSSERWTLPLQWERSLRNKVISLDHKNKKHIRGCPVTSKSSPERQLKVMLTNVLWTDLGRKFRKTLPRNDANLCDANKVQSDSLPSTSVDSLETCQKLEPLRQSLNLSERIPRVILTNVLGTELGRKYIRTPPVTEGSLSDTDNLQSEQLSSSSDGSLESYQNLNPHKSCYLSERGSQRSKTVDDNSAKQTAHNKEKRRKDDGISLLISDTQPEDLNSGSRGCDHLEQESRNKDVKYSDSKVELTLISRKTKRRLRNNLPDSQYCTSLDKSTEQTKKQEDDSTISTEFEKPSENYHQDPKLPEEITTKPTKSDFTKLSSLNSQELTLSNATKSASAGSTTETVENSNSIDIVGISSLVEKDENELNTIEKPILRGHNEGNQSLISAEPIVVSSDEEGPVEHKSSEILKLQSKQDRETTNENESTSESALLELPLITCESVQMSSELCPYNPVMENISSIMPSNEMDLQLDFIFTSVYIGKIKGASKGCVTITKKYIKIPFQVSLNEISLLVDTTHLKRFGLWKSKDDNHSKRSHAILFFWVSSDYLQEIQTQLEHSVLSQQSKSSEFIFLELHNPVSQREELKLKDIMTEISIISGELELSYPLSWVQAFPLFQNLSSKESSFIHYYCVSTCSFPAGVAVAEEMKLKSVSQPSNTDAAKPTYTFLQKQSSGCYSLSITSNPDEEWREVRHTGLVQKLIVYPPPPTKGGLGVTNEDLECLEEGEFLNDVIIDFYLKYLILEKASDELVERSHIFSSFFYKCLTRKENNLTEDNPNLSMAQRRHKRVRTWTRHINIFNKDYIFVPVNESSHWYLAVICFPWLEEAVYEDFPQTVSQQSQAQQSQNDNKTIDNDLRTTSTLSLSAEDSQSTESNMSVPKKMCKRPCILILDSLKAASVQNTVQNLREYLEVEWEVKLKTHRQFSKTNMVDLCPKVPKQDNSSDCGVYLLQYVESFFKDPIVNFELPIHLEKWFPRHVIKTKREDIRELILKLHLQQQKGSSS

[4] = biological target: T5, Sentrin-specific protease 6 (Homo sapiens, UniProt Q9GZR1); type: functional;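 note: Luminescence-based dose-response confirmatory assay of SENP6 inhibition, following up an ultra-high-throughput screen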
T5 sequence (Q9GZR1 whole entry): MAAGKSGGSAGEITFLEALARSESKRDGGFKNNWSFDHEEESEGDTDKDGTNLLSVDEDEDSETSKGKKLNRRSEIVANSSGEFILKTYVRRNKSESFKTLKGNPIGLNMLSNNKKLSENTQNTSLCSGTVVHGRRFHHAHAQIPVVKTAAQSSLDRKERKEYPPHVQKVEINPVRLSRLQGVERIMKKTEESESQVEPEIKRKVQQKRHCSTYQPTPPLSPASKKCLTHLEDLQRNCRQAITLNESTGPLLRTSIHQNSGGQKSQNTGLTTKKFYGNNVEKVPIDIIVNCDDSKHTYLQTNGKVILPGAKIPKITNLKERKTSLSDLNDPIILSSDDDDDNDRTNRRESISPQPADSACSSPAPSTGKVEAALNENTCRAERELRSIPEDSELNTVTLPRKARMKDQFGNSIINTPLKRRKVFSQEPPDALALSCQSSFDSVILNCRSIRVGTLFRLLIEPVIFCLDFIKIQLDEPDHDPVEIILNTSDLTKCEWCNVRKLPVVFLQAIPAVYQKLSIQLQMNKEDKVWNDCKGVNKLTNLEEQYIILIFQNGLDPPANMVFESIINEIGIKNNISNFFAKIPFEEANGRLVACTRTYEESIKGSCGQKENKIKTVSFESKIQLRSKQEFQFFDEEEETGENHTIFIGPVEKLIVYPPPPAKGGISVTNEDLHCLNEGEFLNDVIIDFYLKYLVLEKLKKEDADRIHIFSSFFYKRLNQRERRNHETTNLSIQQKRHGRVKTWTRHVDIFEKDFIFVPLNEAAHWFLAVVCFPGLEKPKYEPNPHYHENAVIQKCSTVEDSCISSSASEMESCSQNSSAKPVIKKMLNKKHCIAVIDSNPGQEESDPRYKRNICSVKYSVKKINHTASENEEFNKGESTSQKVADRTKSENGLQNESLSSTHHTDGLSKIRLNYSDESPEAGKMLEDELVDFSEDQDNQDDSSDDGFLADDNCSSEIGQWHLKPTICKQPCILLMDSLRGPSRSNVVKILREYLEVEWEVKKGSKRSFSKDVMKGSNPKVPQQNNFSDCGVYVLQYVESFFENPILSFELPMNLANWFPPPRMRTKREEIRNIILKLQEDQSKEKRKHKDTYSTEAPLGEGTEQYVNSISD

[5] = biological target: T6, Sentrin-specific protease 8 (Homo sapiens, UniProt Q96LD8); type: functional;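 note: luminescence read-out of SENP8 inhibition, dose-response confirmation following an ultra-high-throughput screen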
T6 sequence (Q96LD8 whole entry): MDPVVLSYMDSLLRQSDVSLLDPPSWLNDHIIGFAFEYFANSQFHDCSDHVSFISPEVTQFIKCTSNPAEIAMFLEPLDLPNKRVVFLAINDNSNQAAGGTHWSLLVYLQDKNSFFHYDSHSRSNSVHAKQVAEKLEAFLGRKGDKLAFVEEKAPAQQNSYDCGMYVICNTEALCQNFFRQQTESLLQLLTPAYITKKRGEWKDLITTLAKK

[6] = biological target: T7, Polyadenylate-binding protein 1 (Homo sapiens, UniProt P11940); assay: MLLE binding blockers, Cy5 peptide tracer – biochemical, fluorescence polarization, Cy5-PAM2 peptide, secondary, miRNA deadenylation inhibitor project, dose response (AID 602260); type: functional; conditions: read-out: IC50_Mean
T7 sequence (P11940 whole entry): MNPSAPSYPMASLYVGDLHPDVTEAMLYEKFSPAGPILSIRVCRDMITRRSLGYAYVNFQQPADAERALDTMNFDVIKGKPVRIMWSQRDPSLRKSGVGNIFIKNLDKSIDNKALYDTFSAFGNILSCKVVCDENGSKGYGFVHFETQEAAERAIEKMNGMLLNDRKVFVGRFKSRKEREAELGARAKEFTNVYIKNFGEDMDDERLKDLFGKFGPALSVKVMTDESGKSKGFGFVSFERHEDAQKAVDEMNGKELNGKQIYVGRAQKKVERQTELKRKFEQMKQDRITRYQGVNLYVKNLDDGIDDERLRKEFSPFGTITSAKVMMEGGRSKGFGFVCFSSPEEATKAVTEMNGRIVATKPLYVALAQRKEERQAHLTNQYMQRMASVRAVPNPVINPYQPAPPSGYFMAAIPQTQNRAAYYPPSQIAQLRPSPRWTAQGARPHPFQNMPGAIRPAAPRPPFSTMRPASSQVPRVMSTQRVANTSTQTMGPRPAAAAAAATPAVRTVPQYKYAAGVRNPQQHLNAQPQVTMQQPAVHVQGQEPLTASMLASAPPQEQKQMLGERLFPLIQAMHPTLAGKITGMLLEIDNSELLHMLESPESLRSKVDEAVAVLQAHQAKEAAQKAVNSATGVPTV

[7] = biological target: T8, Mitochondrial peptide methionine sulfoxide reductase (Bos taurus, UniProt P54149); assay: Absorbance-based biochemical high throughput dose response assay for activators of Methionine sulfoxide reductase A (MsrA).; type: functional
T8 sequence (P54149 whole entry): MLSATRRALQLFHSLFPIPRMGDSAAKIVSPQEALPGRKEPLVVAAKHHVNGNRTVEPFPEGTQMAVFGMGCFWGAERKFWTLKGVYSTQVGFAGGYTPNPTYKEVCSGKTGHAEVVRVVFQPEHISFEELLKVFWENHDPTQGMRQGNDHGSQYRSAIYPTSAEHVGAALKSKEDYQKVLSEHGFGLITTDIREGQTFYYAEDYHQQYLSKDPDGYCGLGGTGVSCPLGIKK

[8] = biological target: T7, Polyadenylate-binding protein 1; assay: MLLE domain peptide-binding blockers, IC50 – biochemical, fluorescence polarization, FITC-PAM2 peptide, dose response (AID 602259); type: functional; conditions: read-out: IC50_Mean
[9] = biological target: T9, Endoribonuclease toxin MazF (Escherichia coli K-12, UniProt P0AE70); assay: activation of MazEF endoribonuclease cleavage – biochemical, fluorescence, single-stranded RNA substrate, uHTS hits, dose response (AID 588481); type: functional
T9 sequence (P0AE70 whole entry): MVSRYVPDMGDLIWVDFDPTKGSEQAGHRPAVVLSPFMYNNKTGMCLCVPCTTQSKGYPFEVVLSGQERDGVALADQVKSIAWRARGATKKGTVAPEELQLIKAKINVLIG

[10] = biological target: T9, Endoribonuclease toxin MazF; assay: substrate-only fluorescence increase artefacts – biochemical, single-stranded RNase substrate, counter-screen for MazEF activator project, dose response (AID 588502); type: functional
[11] = biological target: Photoreceptor-specific nuclear receptor (Homo sapiens, UniProt Q9Y5X4); type: functional, cell-based;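 note: CHO-S cells with Gal4-NCOR and VP16-NR2E3 two-hybrid luciferase reporter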
Chain of Photoreceptor-specific nuclear receptor (Q9Y5X4 whole entry, the tested form may be a part): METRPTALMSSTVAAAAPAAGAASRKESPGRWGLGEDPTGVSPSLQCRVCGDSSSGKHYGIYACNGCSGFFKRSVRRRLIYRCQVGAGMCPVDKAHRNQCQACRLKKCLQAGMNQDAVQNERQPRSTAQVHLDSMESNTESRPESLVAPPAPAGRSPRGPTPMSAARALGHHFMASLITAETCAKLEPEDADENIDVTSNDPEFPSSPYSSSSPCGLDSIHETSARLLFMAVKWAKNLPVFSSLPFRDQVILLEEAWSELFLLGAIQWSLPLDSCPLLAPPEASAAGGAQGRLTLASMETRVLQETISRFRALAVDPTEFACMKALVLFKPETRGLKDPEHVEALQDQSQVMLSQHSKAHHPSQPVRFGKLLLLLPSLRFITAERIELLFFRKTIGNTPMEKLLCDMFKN

[12] = viability of PTEN-deleted HCT116 cells – cell-based, HCT116 PTEN knockout, dose response (AID 1047); type: functional;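 note: HCT116 colon tumor cells with PTEN knocked out; cells exposed to compound for 60 hours before readout; potency for loss of cell viability measured by luminescence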
[13] = viability of HCT116 lacking mutant beta-catenin – cell-based, human colon tumor, dose response (AID 1045); type: functional;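 note: HCT116 colon tumor cells with beta catenin knocked out; cells exposed to compound for 60 hours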
Vero = assay: cells; type: functional; conditions: Chlorocebus sabaeus
[14] = Trypanosoma cruzi growth suppression in host cells – NIH3T3 host cells, beta-gal luminescence, confirmation (AID 2044); type: functional, cell-based;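 note: intracellular parasites grown in NIH/3T3 mouse fibroblasts as host cells; luminescent beta-galactosidase reporter signal from transgenic T. cruzi replicating inside host cells; inhibitors lower the luminescence signal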
[15] = NIH3T3 cell viability loss – ATP luminescence, mouse fibroblasts, counter-screen, dose response (AID 2010); type: functional, cell-based;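 note: cells exposed to compound for about 90 hours before reading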
cells = type: functional

With `CCCCN(CC)CCCNC(=O)c1cc2c(=O)n(C)c3ccccc3c2n1C` the IC50 [1] was > 20 µM (inactive) and the AC50 [2] was 22.2 µM (active).
With `O=C(Nc1ccccc1)c1ccc(-c2ccccc2Cl)o1` the IC50 (Caspase-3) was 74.3 µM (active), the IC50 [3] was 4.47 µM (active) and the IC50 [4] was > 100 µM (inactive). The IC50 [5] was > 100 µM (inactive).
For `COCc1cc(=O)[nH]c(=S)[nH]1`, the IC50 [6] was > 66 µM (inactive), the EC50 [7] was > 104 µM (inactive) and the IC50 [8] was > 66 µM (inactive).
In the case of `Brc1ccc(NN=Nc2ccccc2)cc1`, the IC50 (Caspase-3) is reported as 27.1 µM (active), the IC50 [3] is reported as 4.66 µM (active) and the IC50 [4] is reported as 11.2 µM (active). The IC50 [5] was 10.9 µM (active).
For `CCCCC(=O)NNC(=S)NC(=O)c1ccc([N+](=O)[O-])cc1`, the EC50 [7] was > 104 µM (inactive).
For `COc1ccc(-c2cc(C)no2)cc1S(=O)(=O)N1CCOc2ccc(C)cc21`, the EC50 [9] was > 99 µM (inactive) and the EC50 [10] was > 99 µM (inactive).
For `O=C(c1cc(S(=O)(=O)N2CCN(c3ccccc3)CC2)ccc1Cl)N1CCCCCCC1`, the IC50 [11] was 5.5 µM (active).
For `Cc1ccc(-c2nc(N(C)C3CCN(C)CC3)c3ccccc3n2)cc1`, the EC50 [12] was 6.77 µM (active), the EC50 [13] was 6.51 µM (active) and the CC50 (Vero) was 16.3 µM (active). For the same compound, the AC50 [2] was 3.93 µM (active).
For `O=C(OCC(=O)N1CCC(c2ccccc2)=N1)c1ccc([N+](=O)[O-])s1`, the EC50 [14] was 0.809 µM (active), the EC50 [15] was > 30 µM (not active) and the IC50 (Caspase-3) was 28.2 µM (active). The IC50 [3] was 18.9 µM (active), the IC50 [4] was 7.19 µM (active) and the IC50 [5] was 5.92 µM (active). For the same compound, the IC50 (cells) was 1.13 µM (active).
For `COc1cccc(NC(=O)c2ccc(-c3ccc([N+](=O)[O-])cc3)o2)c1`, the EC50 [9] was > 99 µM (inactive) and the EC50 [10] was > 99 µM (inactive).
For `CCOC(=O)C1=C(C)N=c2s/c(=C/c3ccccc3)c(=O)n2C1c1ccc(OC)c(OC)c1` (configuration not stated), the EC50 [9] was > 99 µM (inactive) and the EC50 [10] was > 99 µM (inactive).
